Measurements: US20060235076A1, “Medicinal composition for treating infection with drug-resistant staphylococcus aureus” (priority 2003, published 2006)
In brackets after ≈: the same amount, converted by molar mass. Like-named read-outs stand apart in the source and are kept apart here.

How the values were obtained:
[1] = tested on: MRSA and MSSA; assay: Antibacterial activity of gallic acid, various gallates and multivalent phenol derivatives alone (agar plate dilution method, MIC); type: cell-based, Staphylococcus aureus; conditions: Staphylococcus aureus
Method: (§1) According to the agar plate dilution method defined by Japan Society of Chemotherapy, MIC (Minimum inhibitory concentration) was determined. CAMHA was prepared by adding 50 mg/l of Ca-ion, 25 mg/l of Mg-ion, and 2% of NaCl to Mueller-Hinton II Agar (MHA), and it was used as a medium for use in the measurement of sensitivity. The bacterial liquid was incubated at 37° C. overnight and diluted to 10^6 CFU/ml with saline.
MIC for gallic acid, various gallates and multivalent phenol derivatives alone with MRSA and MSSA were determined as described in experiment 2.

[2] = tested on: MRSA; assay: Potentiating effect of galloyl quinic acid derivatives for the antibacterial activity of oxacillin (agar plate dilution method, MIC); type: cell-based, Staphylococcus aureus
Method: as §1
It was confirmed that the known substances shown below were contained in “Tara” and their MICs were determined as described in example 2 with respect to the effects of the combination use with oxacillin

[3] = ATCC 6538 / MRSA / MSSA, ATCC6538, read-out: MIC alone
[4] = MSSA #1003, read-out: MIC alone
[5] = MSSA #1010, read-out: MIC alone
[6] = MSSA #1020, read-out: MIC alone
[7] = MSSA #1023, read-out: MIC alone
[8] = MSSA #1029, read-out: MIC alone
[9] = MSSA #1032, read-out: MIC alone
[10] = compound alone, over all strains of Table 3-1, read-out: MIC50
[11] = COL, compound alone, read-out: MIC
[12] = MRSA #1, compound alone, read-out: MIC
[13] = MRSA #2, compound alone, read-out: MIC
[14] = MRSA #3, compound alone, read-out: MIC
[15] = MRSA #4, compound alone, read-out: MIC
[16] = MRSA #5, compound alone, read-out: MIC
[17] = MRSA #6, compound alone, read-out: MIC
[18] = MRSA #7, compound alone, read-out: MIC
[19] = MRSA #8, compound alone, read-out: MIC
[20] = MRSA #9, compound alone, read-out: MIC
[21] = MRSA #10, compound alone, read-out: MIC
[22] = MRSA #12, compound alone, read-out: MIC
[23] = MRSA #16, compound alone, read-out: MIC
[24] = MRSA #17, compound alone, read-out: MIC
[25] = MRSA #18, compound alone, read-out: MIC
[26] = MRSA #20, compound alone, read-out: MIC
[27] = MRSA #21, compound alone, read-out: MIC
[28] = MRSA #22, compound alone, read-out: MIC
[29] = MRSA #24, compound alone, read-out: MIC
[30] = MSSA #1003, compound alone, read-out: MIC
[31] = MSSA #1010, compound alone, read-out: MIC
[32] = MSSA #1020, compound alone, read-out: MIC
[33] = MSSA #1023, compound alone, read-out: MIC
[34] = MSSA #1029, compound alone, read-out: MIC
[35] = MSSA #1032, compound alone, read-out: MIC

O=C(O)c1cc(O)c(O)c(O)c1 [Gallic acid, gallic acid, reference compound]
MIC [1, 3]: 62.5 µg/mL (≈ 367 µM)
MIC ([1]; COL, read-out: MIC alone): 62.5 µg/mL (≈ 367 µM)
MIC ([1]; MRSA #1, read-out: MIC alone): 31.3 µg/mL (≈ 184 µM)
MIC ([1]; MRSA #2, read-out: MIC alone): 62.5 µg/mL (≈ 367 µM)
MIC ([1]; MRSA #3, read-out: MIC alone): 31.3 µg/mL (≈ 184 µM)
MIC ([1]; MRSA #4, read-out: MIC alone): 62.5 µg/mL (≈ 367 µM)
MIC ([1]; MRSA #5, read-out: MIC alone): 31.3 µg/mL (≈ 184 µM)
MIC ([1]; MRSA #6, read-out: MIC alone): 31.3 µg/mL (≈ 184 µM)
MIC ([1]; MRSA #7, read-out: MIC alone): 62.5 µg/mL (≈ 367 µM)
MIC ([1]; MRSA #8, read-out: MIC alone): 31.3 µg/mL (≈ 184 µM)
MIC ([1]; MRSA #9, read-out: MIC alone): 31.3 µg/mL (≈ 184 µM)
MIC ([1]; MRSA #10, read-out: MIC alone): 31.3 µg/mL (≈ 184 µM)
MIC ([1]; MRSA #12, read-out: MIC alone): 62.5 µg/mL (≈ 367 µM)
MIC ([1]; MRSA #16, read-out: MIC alone): 31.3 µg/mL (≈ 184 µM)
MIC ([1]; MRSA #17, read-out: MIC alone): 62.5 µg/mL (≈ 367 µM)
MIC ([1]; MRSA #18, read-out: MIC alone): 62.5 µg/mL (≈ 367 µM)
MIC ([1]; MRSA #20, read-out: MIC alone): 62.5 µg/mL (≈ 367 µM)
MIC ([1]; MRSA #21, read-out: MIC alone): 62.5 µg/mL (≈ 367 µM)
MIC ([1]; MRSA #22, read-out: MIC alone): 62.5 µg/mL (≈ 367 µM)
MIC ([1]; MRSA #24, read-out: MIC alone): 62.5 µg/mL (≈ 367 µM)
MIC [1, 4]: 62.5 µg/mL (≈ 367 µM)
MIC [1, 5]: 62.5 µg/mL (≈ 367 µM)
MIC [1, 6]: 62.5 µg/mL (≈ 367 µM)
MIC [1, 7]: 31.3 µg/mL (≈ 184 µM)
MIC [1, 8]: 31.3 µg/mL (≈ 184 µM)
MIC [1, 9]: 31.3 µg/mL (≈ 184 µM)
MIC50 [1, 10]: 62.5 µg/mL (≈ 367 µM)

CC(C)CCOC(=O)c1ccc(O)cc1 [Isoamyl 4-hydroxybenzoate]
MIC50 [1]: 62.5 µg/mL (≈ 300 µM)
MIC ([1]; ATCC 6538 / MRSA / MSSA): 62.5 µg/mL (≈ 300 µM)
MIC [1, 11]: 62.5 µg/mL (≈ 300 µM)
MIC [1, 12]: 62.5 µg/mL (≈ 300 µM)
MIC [1, 13]: 62.5 µg/mL (≈ 300 µM)
MIC [1, 14]: 62.5 µg/mL (≈ 300 µM)
MIC [1, 15]: 62.5 µg/mL (≈ 300 µM)
MIC [1, 16]: 62.5 µg/mL (≈ 300 µM)
MIC [1, 17]: 62.5 µg/mL (≈ 300 µM)
MIC [1, 18]: 62.5 µg/mL (≈ 300 µM)
MIC [1, 19]: 62.5 µg/mL (≈ 300 µM)
MIC [1, 20]: 62.5 µg/mL (≈ 300 µM)
MIC [1, 21]: 31.3 µg/mL (≈ 150 µM)
MIC [1, 22]: 62.5 µg/mL (≈ 300 µM)
MIC [1, 23]: 62.5 µg/mL (≈ 300 µM)
MIC [1, 24]: 62.5 µg/mL (≈ 300 µM)
MIC [1, 25]: 62.5 µg/mL (≈ 300 µM)
MIC [1, 26]: 62.5 µg/mL (≈ 300 µM)
MIC [1, 27]: 62.5 µg/mL (≈ 300 µM)
MIC [1, 28]: 62.5 µg/mL (≈ 300 µM)
MIC [1, 29]: 62.5 µg/mL (≈ 300 µM)
MIC [1, 30]: 62.5 µg/mL (≈ 300 µM)
MIC [1, 31]: 62.5 µg/mL (≈ 300 µM)
MIC [1, 32]: 62.5 µg/mL (≈ 300 µM)
MIC [1, 33]: 62.5 µg/mL (≈ 300 µM)
MIC [1, 34]: 62.5 µg/mL (≈ 300 µM)
MIC [1, 35]: 62.5 µg/mL (≈ 300 µM)

COC(=O)C1(O)CC(OC(=O)c2cc(O)c(O)c(O)c2)C(OC(=O)c2cc(O)c(O)c(O)c2)C(OC(=O)c2cc(O)c(O)c(O)c2)C1 (stereo not drawn) [Methyl 3,4,5-trigalloylquinate, methyl 3,4,5-trigalloylquinate]
effect of combination use with oxacillin (words) [2]: weak effects

COC(=O)C1(O)CC(O)C(OC(=O)c2cc(O)c(O)c(O)c2)C(OC(=O)c2cc(O)c(O)c(O)c2)C1 (stereo not drawn) [Methyl 4,5-digalloylquinate, methyl 4,5-digalloylquinate]
effect of combination use with oxacillin (words) [2]: follows
effect of combination use with oxacillin (words) ([2]; listed as methyl 4,5-digalloylquinate): excellent

COC(=O)c1cc(O)c(O)c(O)c1 [Methyl gallate, methyl gallate]
MIC [1, 3]: 250 µg/mL (≈ 1360 µM)
MIC ([1]; COL, read-out: MIC alone): 250 µg/mL (≈ 1360 µM)
MIC ([1]; MRSA #1, read-out: MIC alone): 250 µg/mL (≈ 1360 µM)
MIC ([1]; MRSA #2, read-out: MIC alone): 125 µg/mL (≈ 679 µM)
MIC ([1]; MRSA #3, read-out: MIC alone): 250 µg/mL (≈ 1360 µM)
MIC ([1]; MRSA #4, read-out: MIC alone): 125 µg/mL (≈ 679 µM)
MIC ([1]; MRSA #5, read-out: MIC alone): 250 µg/mL (≈ 1360 µM)
MIC ([1]; MRSA #6, read-out: MIC alone): 125 µg/mL (≈ 679 µM)
MIC ([1]; MRSA #7, read-out: MIC alone): 250 µg/mL (≈ 1360 µM)
MIC ([1]; MRSA #8, read-out: MIC alone): 250 µg/mL (≈ 1360 µM)
MIC ([1]; MRSA #9, read-out: MIC alone): 62.5 µg/mL (≈ 339 µM)
MIC ([1]; MRSA #10, read-out: MIC alone): 62.5 µg/mL (≈ 339 µM)
MIC ([1]; MRSA #12, read-out: MIC alone): 250 µg/mL (≈ 1360 µM)
MIC ([1]; MRSA #16, read-out: MIC alone): 125 µg/mL (≈ 679 µM)
MIC ([1]; MRSA #17, read-out: MIC alone): 125 µg/mL (≈ 679 µM)
MIC ([1]; MRSA #18, read-out: MIC alone): 125 µg/mL (≈ 679 µM)
MIC ([1]; MRSA #20, read-out: MIC alone): 250 µg/mL (≈ 1360 µM)
MIC ([1]; MRSA #21, read-out: MIC alone): 250 µg/mL (≈ 1360 µM)
MIC ([1]; MRSA #22, read-out: MIC alone): 250 µg/mL (≈ 1360 µM)
MIC ([1]; MRSA #24, read-out: MIC alone): 250 µg/mL (≈ 1360 µM)
MIC [1, 4]: 250 µg/mL (≈ 1360 µM)
MIC [1, 5]: 250 µg/mL (≈ 1360 µM)
MIC [1, 6]: 250 µg/mL (≈ 1360 µM)
MIC [1, 7]: 125 µg/mL (≈ 679 µM)
MIC [1, 8]: 62.5 µg/mL (≈ 339 µM)
MIC [1, 9]: 250 µg/mL (≈ 1360 µM)
MIC50 [1, 10]: 250 µg/mL (≈ 1360 µM)

CCCCCOC(=O)c1ccc(O)cc1 [n-Amyl 4-hydroxybenzoate]
MIC50 [1]: 62.5 µg/mL (≈ 300 µM)
MIC ([1]; ATCC 6538 / MRSA / MSSA): 62.5 µg/mL (≈ 300 µM)
MIC [1, 11]: 62.5 µg/mL (≈ 300 µM)
MIC [1, 12]: 62.5 µg/mL (≈ 300 µM)
MIC [1, 13]: 62.5 µg/mL (≈ 300 µM)
MIC [1, 14]: 62.5 µg/mL (≈ 300 µM)
MIC [1, 15]: 62.5 µg/mL (≈ 300 µM)
MIC [1, 16]: 62.5 µg/mL (≈ 300 µM)
MIC [1, 17]: 31.3 µg/mL (≈ 150 µM)
MIC [1, 18]: 62.5 µg/mL (≈ 300 µM)
MIC [1, 19]: 31.3 µg/mL (≈ 150 µM)
MIC [1, 20]: 31.3 µg/mL (≈ 150 µM)
MIC [1, 21]: 62.5 µg/mL (≈ 300 µM)
MIC [1, 22]: 62.5 µg/mL (≈ 300 µM)
MIC [1, 23]: 62.5 µg/mL (≈ 300 µM)
MIC [1, 24]: 62.5 µg/mL (≈ 300 µM)
MIC [1, 25]: 62.5 µg/mL (≈ 300 µM)
MIC [1, 26]: 62.5 µg/mL (≈ 300 µM)
MIC [1, 27]: 62.5 µg/mL (≈ 300 µM)
MIC [1, 28]: 62.5 µg/mL (≈ 300 µM)
MIC [1, 29]: 62.5 µg/mL (≈ 300 µM)
MIC [1, 30]: 62.5 µg/mL (≈ 300 µM)
MIC [1, 31]: 62.5 µg/mL (≈ 300 µM)
MIC [1, 32]: 62.5 µg/mL (≈ 300 µM)
MIC [1, 33]: 31.3 µg/mL (≈ 150 µM)
MIC [1, 34]: 62.5 µg/mL (≈ 300 µM)
MIC [1, 35]: 62.5 µg/mL (≈ 300 µM)
